Measurements: patent US20080227128A1, “Resonance Energy Transfer System and Method” (Mount Sinai School of Medicine of New York University, priority 2004, published 2008)
Read-outs that look alike come from different tables or passages of the source. Each block holds one molecule with its values, some of them ahead of it. *: point of attachment. Biotin = O=C1N[C@H]2[C@H](CS[C@H]2CCCCC(=O)*)N1

How the values were obtained:
[1] = tested on: PKA-Ala construct; test: BRET assay, PKA-Ala construct; format: cell-based, Human
[2] = tested on: KGGKY construct; test: BRET assay, Src pathway reporter (KGGKY construct) in HEK-293 cells; format: cell-based, Human
Experimental: Using a target sequence derived from a tyrosine in the L1-CAM cytoplasmic tail, a reporter was generated encoding a 12 amino acid insert, including a terminal tyrosine ([…], SEQ ID NO: 13). […] However, the Src-family inhibitor PP1 causes an increase in the BRET efficiency at doses above 20 μM while a related inhibitor PP2 has no effect at similar doses (FIG. 9B, results are shown mean±standard deviation, *P<0.01). […] Fibroblasts derived from wild-type (+/+src) or Src-null (−/−src) mice were treated with FGF, which activates indirectly Src-family kinases.

[3] = tested on: L1-BRET construct; test: BRET assay, L1-BRET construct transfected in HEK-293 cells; format: cell-based, Human; settings: for effect on the BRET ratio of the L1-BRET construct: HEK-293 cells; for effect on the BRET ratio of the L1-BRET construct / effect on the BRET ratio of EGF-stimulated cells: n=5; for effect on the BRET ratio of EGF-stimulated cells: src-family kinase inhibitors; for effect on the decrease in BRET ratio following EGF stimulation: pre-treating cells, genistein 100 μM
[4] = tested on: endogenous L1-CAM; test: Anti-phosphotyrosine immunoblot of endogenous L1-CAM, NGF-stimulated ND7 cells; format: cell-based; settings: 100 μM
Experimental: (§1) Near-confluent cultures of HEK-293 cells, stably transfected with either an acceptor-insert-donor construct, or CHIM construct (SEQ ID NO: 2); or ND7 cells were harvested with trypsin-EDTA and resuspended to a density of 6×10^5 cells/ml. Aliquots (5 ml) of cell suspensions were added to 100 mm cell culture dishes (Corning Incorporated Life Sciences, Acton, Mass.) and incubated for 12 hrs at 37° C. Stably transfected HEK-293 cells were treated with genistein for 4 hrs at 37° C; and ND7 cells were treated with 100 μM PD98059 for 1 h and with 100 ng/ml NGF for 15 min. […] The protein concentrations of the supernatants were determined by using the BCA (bicinchoninic acid) protein assay (Pierce Chemical Company, Rockford, Ill.). […] Immobilized protein A beads were washed and resuspended in Laemnuli buffer, analyzed by SDS-PAGE, and transferred to nitrocellulose membrane. […]
To determine whether the MAPK signaling cascade can modulate tyrosine phosphorylation of full-length L1-CAM, the effect of MEK inhibitors was examined on ND7 cells stimulated with NGF. Cell lysates were immunoprecipitated with an anti-L1-CAM Ab and subsequently analyzed by immunoblotting (FIG. 2F) with an anti-phosphotyrosine Ab to detect phosphorylated L1-CAM (upper blot). […]

[5] = tested on: ankyrin B recruitment to the plasma membrane; test: Ankyrin B recruitment to the plasma membrane (immunofluorescence), HEK-293 cells with L1-CAM and ankyrin-B GFP; format: cell-based, Human
Experimental: HEK-293 cells were transfected with cDNA encoding an amino-terminal myc-epitope tagged full-length wild-type neuronal adhesion protein L1-CAM and a carboxy-terminal GFP-tagged ankyrin B construct using lipofectamine reagents. […] For immunolocalization, cells were fixed for 10 min using 1% (w/v) paraformaldehyde in 60 mM Pipes, 25 mM Hepes, 10 mM EGTA, and 2 mM MgCl2. Staining was performed as described previously (Felsenfeld et al. (1999) Nat. Cell Biol. 1:200-6). Briefly, ankyrin B was detected by indirect immunofluorescence using a rabbit anti-GFP polyclonal Ab and a donkey anti-rabbit Ab conjugated to indodicarbocyanince Cy5. L1-CAM was detected by indirect immunofluorescence using a mouse anti-myc monoclonal Ab and a donkey anti-mouse Ab conjugated to indocarbocyanine Cy3. […] Images were analyzed using NIH ImageJ (National Institutes of Health, Bethesda, Md.). […] Signal maximum for ankyrin staining at the junction between cells was determined at the position of the maximal L1-CAM staining to ensure that membrane rather than juxtamembrane staining was quantified. Minima were determined from the regions of the line overlapping the cytoplasm of either of the two cells. Membrane localization index was determined using the equation index=max/(max-min) as described (Gil et al. (2003) J. Cell Biol. 162:719-30). […]

[6] = tested on: L1-BRET construct in PC12 cells; test: BRET assay, L1-BRET construct in PC12 cells; format: cell-based, rat; settings: pre-treated
Text: (§2) To confirm that the effects of MEK inhibitors were due to the phosphorylation state of […] (SEQ ID NO: 1), the effect of PD98059 and U0126 was examined on the BRET ratio of the […] (SEQ ID NO: 3), […] (SEQ ID NO: 4), and […] (SEQ ID NO: 5) variant constructs. […] To determine whether components of the MAPK cascade are responsible for phosphorylating the FIGQY (SEQ ID NO: 12) sequence in other cell types, downstream of other RTKs, L1-BRET construct was transiently transfected into ND7 (neuroblastoma) and PC12 (pheochromocytoma) cells (Dunn et al. (1991) Brain Res. 545:80-86; Pang et al. (1995) J. Biol. Chem. 270:13585-13588).

[7] = tested on: […], […], […] variant constructs; format: cell-based, Human
[8] = tested on: L1-SLADY BRET; test: BRET assay, L1-SLADY BRET reporter in HEK-293 cells; format: cell-based, Human
Text: Another MAP kinase pathway reporter was constructed and tested using the methods described above and is outlined in the L1-SLADY BRET Data shown in FIGS. 5A, 5B, and 5C. The results of these figures are consistent with the other MAP kinase pathway data showing that the BRET system can be used as a MAP kinase pathway reporter.

[9] = tested on: L1-BRET construct in ND7 cells; test: BRET assay, L1-BRET construct in ND7 cells; format: cell-based
Text: as §2

[10] = tested on: PKA construct; test: BRET assay, PKA construct in HEK-293 cells; format: cell-based, Human; settings: kinase inhibitors
Text: A reporter was generated for PKA based on a target domain derived from fish connexin35 (Mitropoulou et al. (2003) J. Neurosci. Res. 72:147-157). The PKA insert target sequence ([…]) contains a carboxy-terminal serine phosphorylation target.

[11] = tested on: myr-L1-BRET; test: BRET assay, myristoylated construct (myr-L1-BRET) in HEK-293 cells; format: cell-based, Human; settings: 20 μM U0126
Experimental: (§4) Near-confluent cultures of HEK-293 cells were harvested with trypsin-EDTA (0.05% trypsin, 0.53 mM EDTA; Invitrogen Corporation, Carlsbad, Calif.) and resuspended to a density of 2.5×10^5 cells/ml. Aliquots (200 μl) of cell suspensions were added to white 96-well culture plates (CulturPlate™; PerkinElmer Life Sciences, Boston, Mass.) and incubated for 12 hrs at 37° C. HEK-293 cells were transfected with 0.1 μg of DNA/well using lipofectamine reagents (Lipofectamine Plus and Lipofectamine™; Invitrogen) according to the manufacturer's instructions. After incubation of plates for 48 hrs at 37° C., the cells were washed once with warm Dulbecco's Modified Eagle's Medium (D-MEM) without phenol red (Invitrogen) supplemented with 25 mM Hepes (Invitrogen). […] The plates were immediately counted using the Fusion Universal Microplate Analyzer (PerkinElmer Life Sciences).
(§5) Bioluminescence resulting from Rluc emission was counted at 410 nm using a 370-450 nm band pass filter and the fluorescence of GFP2 was counted at 515 nm using a 500-530 nm band pass filter. The efficiency of energy transfer between Rluc and GFP2 is determined by dividing acceptor emission intensity (GFP2) by donor emission intensity (Rluc). […]

[12] = tested on: cerebellar granular neurons; test: Neurite outgrowth assay on Ng-CAM; format: cell-based, mouse; settings: 10 μM U0126
Experimental: (§3) Neurite outgrowth experiments were performed as described (Gil et al. (2003) J. Cell Biol. 162:719-30) with slight modification. A 1 cm-diameter circle in a 35 mm petri dish (Becton Dickinson) was coated with poly-L-lysine (5 μg/ml in phosphate-buffered saline (PBS) from Speciality Media, Phillipsburg, N.J.) for 1 hr at room temperature. After several washes with PBS, the coated area was dried under the hood. Aliquots of 1 μl of neural-glial cell adhesion molecule (Ng-CAM, Gil et al. (2003) J. Cell Biol. 162:719-30) at 50 μg/ml or laminin at 30 μg/ml (Becton Dickinson) were spotted on the coated area. Dishes were incubated for 1 hr at room temperature, washed several times with PBS and then blocked with 1% (w/v) bovine serum albumin (BSA). Cerebellar cells were prepared from P2-P4 mouse and plated on the prepared dishes in BME/B27/glucose/glutamine/Pen-Strep media at a cell density of 3×10^5 cells/ml. Peptides and U0126 were diluted in DMSO (10 mg/ml for peptides, 13 mM for U0126) and further diluted in media (final concentration 10 μg/ml peptide; 10 μM U0126) which was added to the cultures when the cells were plated. Cultures were incubated for 2 days and fixed with 4% paraformaldehyde.

[13] = tested on: cerebellar granular neurons; test: Neurite outgrowth assay on laminin; format: cell-based, mouse; settings: 10 μM U0126
Experimental: as §3

[14] = tested on: MEK; test: In vitro kinase assay with purified MEK; format: biochemical; settings: for phosphorylation in the presence of purified MEK: substrate
[15] = tested on: myr-FIGQH, myr-FIGQF; settings: 20 μM U0126; tyrosine mutated to histidine or phenylalanine
Experimental: as §4, §5

[16] = tested on: L1-BRET protein; test: Anti-phosphotyrosine immunoblot of L1-BRET protein, stably transfected HEK-293 cells; format: cell-based, Human; settings: pretreated with genistein 100 μM
Experimental: as §1
Immunoblot analysis was performed (FIG. 1G). Cell lysates were immunoprecipitated with an anti-GFP Ab and subsequently analyzed by immunoblotting with an anti-phosphotyrosine Ab to detect phosphorylated BRET constructs (upper blot). […] There was no phosphotyrosine detected in the CHIM construct (SEQ ID NO: 2) in the presence or absence of genistein, consistent with the idea that phosphorylation of the FIGQY (SEQ ID NO: 12) tyrosine is responsible for the changes observed in the spectrum of L1-BRET.

Molecule: Nc1ncnc2c1ncn2[C@@H]1O[C@@H]2COP(O)(=S)O[C@H]2[C@H]1O (single isomer, unassigned) [Sp-cAMPs, Adenosine-3′,5′-cyclic monophosphorothioate, Sp-isomer]
effect on BRET ratio, serine mutated to alanine [1]: has no effect

Molecule: COc1cccc(-c2cc(=O)c3ccccc3o2)c1N [PD98059]
effect on this reporter ([2]; 100 μM): no detectible effect
effect on the BRET ratio of the L1-BRET construct [3]: increased the BRET ratio of the L1-BRET construct in a dose-dependent manner
level of tyrosine phosphorylation of endogenous L1-CAM [4]: marked decrease in the level of tyrosine phosphorylation
effect on the EGF-induced decrease in ankyrin B recruitment ([5]; 100 μM PD98059 with 100 ng/ml EGF): reversed
change in the BRET ratio of the L1-BRET construct in PC12 cells [6]: increases in the BRET ratio
change in the BRET ratio of the variant constructs with MEK inhibitors [7]: no change in the BRET ratio
effect on the decrease in BRET ratio (FIG. 5A, 5B) [8]: reverses the decrease in BRET ratio
change in the BRET ratio of the L1-BRET construct in ND7 cells [9]: increases in the BRET ratio

Molecule: Cc1ccc(-c2nn(C(C)(C)C)c3ncnc(N)c23)cc1 [PP1]
effect on FRET efficiency of the PKA reporter [10]: had no effect on FRET efficiency
doses causing an increase in the BRET efficiency ([2]; dose response): above 20 μM
effect on the BRET ratio of EGF-stimulated cells [3]: had no effect on the BRET ratio

Molecule: CC(C)(C)n1nc(-c2ccc(Cl)cc2)c2c(N)ncnc21 [PP2]
effect on BRET efficiency at similar doses ([2]; doses similar to PP1 (above 20 μM)): has no effect
effect on the BRET ratio of EGF-stimulated cells [3]: had no effect on the BRET ratio

Molecule: N#CC(=C(/N)Sc1ccccc1N)/C(C#N)=C(\N)Sc1ccccc1N [U0126]
change in BRET ratio of the myristoylated construct following inhibition of MEK [11]: increase in BRET ratio
mean neurite length [12]: reduces mean neurite length
axon growth on laminin [13]: inhibited
effect on the increase in phosphorylation of MEKSBS and […] peptide ([14]; purified MEK): inhibited
effect on the BRET ratio of the L1-BRET construct [3]: increased the BRET ratio of the L1-BRET construct in a dose-dependent manner
change in the BRET ratio of the L1-BRET construct in PC12 cells [6]: increases in the BRET ratio
change in the BRET ratio of the variant constructs with MEK inhibitors ([7]; 100 μM): no change in the BRET ratio
change in BRET ratio of mutated myristoylated constructs following inhibition of MEK [15]: abolishes the increase in BRET ratio
change in the BRET ratio of the L1-BRET construct in ND7 cells [9]: increases in the BRET ratio

Molecule: O=c1c(-c2ccc(O)cc2)coc2cc(O)ccc12 [daidzein]
effect on the decrease in BRET ratio following EGF stimulation [3]: had no effect

Molecule: COC(=O)C=Cc1cc(O)ccc1O [erbstatin analog, methyl 2,5-dihydroxycinnamate]
effect on the BRET ratio of the L1-BRET construct [3]: increased the BRET ratio of the L1-BRET construct in a dose-dependent manner

Molecule: O=c1c(-c2ccc(O)cc2)coc2cc(O)cc(O)c12 [genistein]
tyrosine phosphorylation of L1-BRET protein [16]: completely inhibited
effect on EGF-dependent decrease in BRET efficiency ([2]; 100 μM genistein, 100 ng/ml EGF): reversed
effect on the decrease in BRET ratio following EGF stimulation [3]: reversed
effect on the decrease in BRET ratio (FIG. 5A, 5B) [8]: reversing the decrease in BRET ratio
change in the BRET ratio of the L1-BRET construct in ND7 cells [9]: increase in the BRET ratio

Molecule: Biotin-ADPDHDHTGFLTEYVATRW-OH [MEKSBS]
phosphorylation in the presence of purified MEK [14]: phosphorylated

Molecule: EGF: Epidermal growth factor (EGF), obtained from Sigma-Aldrich
level of ankyrin B recruited to the plasma membrane ([5]; 100 ng/ml EGF): decrease in the level of ankyrin B recruited to the plasma membrane

phosphorylation in the presence of purified MEK [14]: phosphorylated
Molecule: KPLGSDDSLADY [L1-derived peptide phosphorylated by purified MEK]
